Results from patent US7803930B2, “Antisense modulation of apolipoprotein B-expression” (Isis Pharmaceuticals, Inc., priority 2002, dated 2010).
In the oligonucleotide strings, read from the 5' end, every base follows the letter of its sugar. An asterisk marks phosphorothioate; unmarked linkages are phosphodiester. Other units and linkages are bracketed, terminal groups are in braces. A string of capitals states the bases alone. e = 2'-O-(2-methoxyethyl) (MOE); [5mC] = 5-methylcytosine; d = 2'-deoxy (DNA)

What follows are substances tested on human apolipoprotein B mRNA (assay: Inhibition of human apolipoprotein B mRNA levels in HepG2 cells, quantitative real-time PCR). Conditions: HepG2 cells; human apolipoprotein B mRNA; oligonucleotides targeting genomic sequence SEQ ID NO 334; averages from two experiments.
Type: cell-based
Outline: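 Apolipoprotein B transcript was quantified by one-step TaqMan RT-PCR, normalized to GAPDH or RiboGreen RNA, and expressed as percent inhibition against an untreated-sample standard curve. HepG2 cells were harvested 16-24 h after oligonucleotide exposure, which was delivered with 3.75 μg/mL Lipofectin over 4-7 h at 80% confluency.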

| Substance | % INHIB [%] |
| --- | --- |
| 301184 (antisense eT*eA*eT*eT*eG*dT*dG*dT*dG*d[5mC]*dT*dG*dG*dG*d[5mC]*eA*e[5mC]*eT*eG*e[5mC]) [compound 301184] | 52 |
| 301185 (antisense eT*eG*e[5mC]*eT*eT*d[5mC]*dG*d[5mC]*dA*d[5mC]*d[5mC]*dT*dG*dG*dA*e[5mC]*eG*eA*eG*eT) [compound 301185] | 51 |
| 301186 (antisense e[5mC]*e[5mC]*eT*eT*e[5mC]*dT*dT*dT*dA*d[5mC]*d[5mC]*dT*dT*dA*dG*eG*eT*eG*eG*e[5mC]) [compound 301186] | 37 |
| 301187 (antisense eG*e[5mC]*eT*e[5mC]*eT*d[5mC]*dT*d[5mC]*dT*dG*d[5mC]*d[5mC]*dA*d[5mC]*dT*e[5mC]*eT*eG*eA*eT) [compound 301187] | 47 |
| 301188 (antisense eA*eA*e[5mC]*eT*eT*d[5mC]*dT*dA*dA*dA*dG*d[5mC]*d[5mC]*dA*dA*e[5mC]*eA*eT*eT*e[5mC]) [compound 301188] | 27 |
| 301189 (antisense eT*eG*eT*eG*eT*d[5mC]*dA*d[5mC]*dA*dA*d[5mC]*dT*dA*dT*dG*eG*eT*eA*eA*eA) [compound 301189] | 63 |
| 301190 (antisense eA*eG*eA*e[5mC]*eA*d[5mC]*dA*dT*dA*d[5mC]*d[5mC]*dA*dT*dA*dA*eT*eG*e[5mC]*e[5mC]*eA) [compound 301190] | 22 |
| 301191 (antisense eT*eT*e[5mC]*eT*e[5mC]*dT*dT*d[5mC]*dA*dT*d[5mC]*dT*dG*dA*dA*eA*eA*eT*eA*e[5mC]) [compound 301191] | 21 |
| 301192 (antisense eT*eG*eA*eG*eG*dA*dT*dG*dT*dA*dA*dT*dT*dA*dG*e[5mC]*eA*e[5mC]*eT*eT) [compound 301192] | 27 |
| 301193 (antisense eA*eG*e[5mC]*eT*e[5mC]*dA*dT*dT*dG*d[5mC]*d[5mC]*dT*dA*d[5mC]*dA*eA*eA*eA*eT*eG) [compound 301193] | 31 |
| 301194 (antisense eG*eT*eT*e[5mC]*eT*d[5mC]*dA*dT*dG*dT*dT*dT*dA*d[5mC]*dT*eA*eA*eT*eG*e[5mC]) [compound 301194] | 40 |
| 301195 (antisense eG*eA*eA*eT*eT*dG*dA*dG*dA*d[5mC]*dA*dA*d[5mC]*dT*dT*eG*eA*eT*eT*eT) [compound 301195] | 26 |
| 301196 (antisense e[5mC]*e[5mC]*eG*eG*e[5mC]*d[5mC]*dA*dT*d[5mC]*dG*d[5mC]*dT*dG*dA*dA*eA*eT*eG*eA*eA) [compound 301196] | 54 |
| 301197 (antisense e[5mC]*eA*eT*eA*eG*d[5mC]*dT*d[5mC]*dA*d[5mC]*d[5mC]*dT*dT*dG*d[5mC]*eA*e[5mC]*eA*eT*eT) [compound 301197] | 28 |
| 301198 (antisense e[5mC]*eG*eG*eT*eG*d[5mC]*dA*d[5mC]*d[5mC]*d[5mC]*dT*dT*dT*dA*d[5mC]*e[5mC]*eT*eG*eA*eG) [compound 301198] | 28 |
| 301199 (antisense eT*e[5mC]*eT*e[5mC]*e[5mC]*dA*dG*dA*dT*d[5mC]*d[5mC]*dT*dA*dA*d[5mC]*eA*eT*eA*eA*eA) [compound 301199] | 19 |
| 301200 (antisense eT*eT*eG*eA*eA*dT*dG*dA*d[5mC]*dA*d[5mC]*dT*dA*dG*dA*eT*eT*eT*eT*e[5mC]) [compound 301200] | 37 |
| 301201 (antisense eA*eA*eA*eA*eT*d[5mC]*d[5mC]*dA*dT*dT*dT*dT*d[5mC]*dT*dT*eT*eA*eA*eA*eG) [compound 301201] | 12 |
| 301202 (antisense e[5mC]*eA*eG*e[5mC]*eT*d[5mC]*dA*d[5mC]*dA*d[5mC]*dT*dT*dA*dT*dT*eT*eT*eA*eA*eA) [compound 301202] | 7 |
| 301203 (antisense eG*eT*eT*e[5mC]*e[5mC]*d[5mC]*dA*dA*dA*dA*d[5mC]*dT*dG*dT*dA*eT*eA*eG*eG*eA) [compound 301203] | 36 |
